From article PMC2361176, “Inhibitory effects of retinoic acid metabolism blocking agents (RAMBAs) on the growth of human prostate cancer cells and LNCaP prostate tumour xenografts in SCID mice” (British Journal of Cancer, 2006)
“Also recorded” adds a separate entry of the source.

Legend:
cytokeratin 8/18 = assay: Differentiation assay (Western-blot analysis of cytokeratins 8/18); assay type: cell-based, human; details: LNCaP cells, 6 days; for cytokeratin 8/18 expression, fold over control, combination with ATRA: 1 μM RAMBA and 1 μM ATRA; for cytokeratin 8/18 expression, fold over control, combination with ATRA / cytokeratin 8/18 expression, fold over control: control 1±0.07; for cytokeratin 8/18 expression, fold over control: 1 μM agent alone; for expression of cytokeratin 8/18 (concentration dependence): various concentrations
Procedure: LNCaP cells were scraped with 1.5 ml of PBS. The cells were collected by centrifugation, resuspended in ice-cold cell lysis buffer (0.1 M Tris-HCl, 0.5% Triton X-100, and protease inhibitor cocktail (Boehringer, Indianapolis, IN, USA)), and sonicated. The homogenates were incubated on ice for 30 min, subjected to centrifugation at 13 000 × g for 30 min, and the supernatants were separated and stored at −80°C until use. Protein concentrations were determined by the Bradford method using a Bio-Rad kit (Hercules, CA, USA). A measure of 50 μg of cell lysate was subjected to 10% sodium dodecyl sulfate-polyacrylamide gel electrophoresis (SDS–PAGE) using the Mini-PROTEAN3 electrophoresis module assembly (Bio-Rad, Hercules, CA, USA) at 60 V at room temperature. The separated lysates on 10% SDS–PAGE gel were transferred onto Hybond ECL nitrocellulose membrane (Amersham, Arlington Heights, IL, USA) overnight at 20 V at 4°C. Western-blot analysis was performed on the nitrocellulose membrane. The membrane was blocked for 1 h in 10% nonfat dried milk and PBS containing 0.5% Tween 20 (PBS-T) at room temperature. Following washing in PBS-T, the membrane was incubated with mouse monoclonal IgG antibody to cytokeratin 8/18 or β-actin (Santa Cruz Biotechnology, Santa Cruz, CA, USA and Oncogene Research Products, Boston, MA, USA, respectively) dissolved in 10% nonfat dried milk (1 : 5000 or 1 : 10 000), respectively) for l h at room temperature. Following washing, the membrane was incubated with horseradish peroxidase-linked anti-mouse IgG antibody (Amersham, Arlington Heights, IL, USA and Oncogene Research Products, Boston, MA, USA, respectively) dissolved in 10% nonfat dried milk (1 : 1000) for 1 h at room temperature. The membrane was incubated in 4 ml ECL Western Blotting Analysis System (Amersham, Arlington Heights, IL, USA) for 1 min at room temperature. The membrane was resolved on chemiluminescence film (Amersham Hyperfilm High Performance chemiluminescence film, Arlington Heights, IL, USA) and the film was developed using an X-ray developer (M35A X-OMAT Processor, Eastman Kodak Company, Rochester, NY, USA). The intensity of the bands on film was analysed using ImageQuant 5.0 software (Amersham, Arlington Heights, IL, USA). The band intensity corresponds to the level of protein expression of cytokeratin 8/18, which is shown to be expressed in differentiated cells of epithelial origin ([Peehl et al, 1993]; [Hsieh et al, 1995]).

LNCaP cells = assay: TUNEL assay of apoptosis in LNCaP cells; assay type: cell-based, human; details: 6 days; for percentage of apoptotic cells (TUNEL): 5 μM; for induction of apoptosis (TUNEL): 1 or 5 μM
Procedure: A total of 4000 LNCaP cells were plated on each well of an eight-well Lab-Tek II® chamber slide (Nalge Nunc International, Naperville, IL, USA). The LNCaP cells were then treated with either 1 or 5 μM of ATRA or RAMBA for 6 days. Cells were then fixed in 4% paraformaldehyde solution in dH2O. The cells were then processed and stained with FITC (fluorescein isothiocyanate) according to kit instructions (In situ cell death detection kit, AP, Roche Diagnostics Corp., Indianapolis, IN, USA). The FITC-stained cells are then mounted with VectorShield® mounting medium for fluorescence with DAPI (4′,6-diamidine-2′-phenylindole dihydrochloride) nuclear stain (Vector Laboratories, Inc., Burlingame, CA, USA) and covered with ApopTag® plastic coverslips (Intergen Company, Purchase, NY, USA). The slides were then examined under fluorescence microscopy (Eclipse E400, Nikon, Inc., Melville, NY, USA) and counted using SPOT Advance® 3.5 software (Diagnostic Instruments, Inc., Sterling Heights, MI, USA).

Bcl-2 = assay: Western-blot analysis of Bcl-2 in LNCaP cells; assay type: cell-based, human; details: data not shown
Procedure: The Western-blot protocol described for cytokeratins 8/18 was followed with some exceptions. Cell lysates (50 μg) were separated on a 15% SDS–PAGE gel. All washing was performed using TBS containing 1% Tween 20 (TBS-T). Blocking was performed using 5% milk in TBS-T. Incubations were performed using rabbit monoclonal IgG antibody to Bad and Bcl-2 (1 : 1000), as well as horseradish peroxidase-linked anti-rabbit IgG antibodies (1 : 2000) (Cell Signaling Technology, Beverly, MA, USA).

LNCaP tumour xenographs = assay: In vivo antitumour study, LNCaP human prostate carcinoma xenograft; design: species or system male SCID mice; details: 0.033 mmol kg−1 once daily; for reduction in tumour growth compared to control: 6 weeks, P<0.05
Procedure: All animal studies were performed according to the guidelines and approval of the Animal Care Committee of the University of Maryland School of Medicine, and were consistent with United Kingdom Coordinating Committee on Cancer Research guidelines for the welfare of animals in experimental neoplasia. The procedure was modified from [Grigoryev et al (1999)]. Briefly, LNCaP cells were trypsinised, counted, and suspended in Matrigel (2 × 10^7 cells ml^−1) (Fisher Scientific International, Inc., Hampton, NH, USA). Male SCID mice of 4–6 weeks of age were obtained from the National Cancer Institute (Frederick, MD, USA). Each mouse was inoculated s.c. with 0.1 ml of the cell suspension at two sites in the flank. The size of the tumours was determined by measuring the tumour volumes using calipers. Tumour volumes were calculated using the formula V=4/3 × π × r1^2 × r2(r1<r2). The tumours were allowed to develop to approximately 100 mm^3 before treatment. […] Tumour volumes were measured twice weekly and weights of animals were taken weekly after the initiation of treatment. The mice were subjected to 6 weeks of treatment. The mice were then killed and the tumours were excised, weighed, and stored at −80°C until analysis. Additionally, the plasma was collected with 50 IU of heparin and stored at −80°C until analysis.

Structure (SMILES) | cytokeratin 8/18 expression, fold over control, combination with ATRA (cytokeratin 8/18) [fold] | cytokeratin 8/18 expression, fold over control (cytokeratin 8/18) [fold] | expression of cytokeratin 8/18 (concentration dependence) (cytokeratin 8/18; data not shown) | percentage of apoptotic cells (TUNEL) (LNCaP cells) [%] | induction of apoptosis (TUNEL) (LNCaP cells) | expression of Bcl-2 (Bcl-2) | tumour growth compared to vehicle control (in words) (LNCaP tumour xenographs) | reduction in tumour growth compared to control (LNCaP tumour xenographs) [%] | cytokeratin 8/18 expression compared to control (cytokeratin 8/18; 5 and 10 μM, P<0.05, data not shown)
CC1=C(/C=C/C(C)=C/C=C/C(C)=C/C(=O)O)C(C)(C)CCC1n1ccnc1 (stereo not shown) [VN/14-1] | 1.59 | 1.18 | concentration-dependent increase | 17.03 | concentration-dependent induction of apoptosis | concentration-dependent decrease | ineffective; also recorded: not significantly different | – | –
CC1=C(/C=C/C(C)=C/C=C/C(C)=C\C(=O)Nc2ccc(O)cc2)C(C)(C)CCC1n1ccnc1 (stereo not shown) [VN/69-1] | 1.32 | 1.19 | concentration-dependent increase | – | concentration-dependent induction of apoptosis | did not effect | statistically significantly LNCaP tumour growth inhibition | 47 | –
CC1=C(/C=C/C(C)=C/C=C/C(C)=C/C(=O)Nc2ccc(O)cc2)C(C)(C)CCC1n1ccnc1 (stereo not shown) [VN/66-1] | 1.48 | 1.28 | concentration-dependent increase | – | concentration-dependent induction of apoptosis | did not effect | statistically significantly LNCaP tumour growth inhibition | 44 | –
CC1=C(/C=C/C(C)=C/C=C/C(C)=C/C(=O)O)C(C)(C)CCC1 [ATRA, all-trans-retinoic acid, reference compound] | – | 1.38 | concentration-dependent increase | – | concentration-dependent induction of apoptosis | concentration-dependent decrease | statistically significantly LNCaP tumour growth inhibition | 75 | significant increase
CC1=C(/C=C/C(C)=C/C=C/C(C)=C/C(=O)n2ccnc2)C(C)(C)CCC1n1ccnc1 (stereo not shown) [VN/50-1] | 1.51 | 1.23 | concentration-dependent increase | 17.03 | concentration-dependent induction of apoptosis | did not effect | – | – | –
